Measured values taken from PubChem BioAssay (NCI).
Where “and” joins values, the source holds several entries; their conditions need not be identical. Equal values may be shown once.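 Exposure lasted 48 hours, with cells grown in 96-well plates and compounds tested at five concentrations. At the GI50, growth is halved. TGI marks complete inhibition of growth.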

Tests used:
Experiment in all cases: growth of human tumour cells (NCI), 48 h
[1] = test system: U251 CNS
[2] = test system: UACC-62 melanoma
[3] = test system: SK-MEL-2 melanoma
[4] = test system: HCT-116 colon
[5] = test system: KM12 colon
[6] = test system: TK-10 renal
[7] = test system: HOP-62 NSCLC
[8] = test system: SNB-75 CNS
[9] = test system: PC-3 prostate

SMILES | TGI [1] | TGI [2] | TGI [3] | TGI [4] | TGI [5] | TGI [6] | TGI [7] | TGI [8] | GI50 [8] | GI50 [1] | GI50 [2] | GI50 [3] | GI50 [4] | GI50 [5] | GI50 [9] | TGI [9] | GI50 [6] | GI50 [7]
O=c1c2ccccc2[nH]c2c(O)ccc(O)c12 | 21.6 µM | 33.5 µM | > 100 µM | 37.9 µM | > 100 µM | 52.6 µM | > 100 µM | – | – | – | – | – | – | – | – | – | – | –
CCOC(=O)C1C=C2O[C@@H]3OC4(CCCCC4)O[C@@H]3C2C2C(=O)CCC(=O)[C@@]12C(=O)OC (stereo partly drawn) | > 100 µM | > 100 µM | > 100 µM | > 100 µM | > 100 µM | – | > 100 µM | > 100 µM | – | – | – | – | – | – | – | – | – | –
Cc1cccc(C)c1NC(=O)CCC/C(CC(=O)c1ccc(F)cc1)=N\NC(=O)C(=O)NN | > 100 µM | > 100 µM | > 100 µM | > 100 µM | > 100 µM | > 100 µM | – | > 100 µM | – | – | – | – | – | – | – | – | – | –
O=[P+](O)c1ccccn1 | > 100 µM | > 100 µM | – | > 100 µM | > 100 µM | > 100 µM | > 100 µM | > 100 µM | – | – | – | – | – | – | – | – | – | –
C1OC1CN1CCN(CC2CO2)CC1 (stereo not drawn) | > 100 µM | > 68.5 µM | > 100 µM | > 100 µM | > 100 µM | > 100 µM | 69.7 µM | > 100 µM | – | – | – | – | – | – | – | – | – | –
Cc1coc2c1C(=O)C(=O)c1ccccc1-2 | 2.97 µM | 3.25 µM | 3.78 µM | 0.879 µM | 3.49 µM | 3.3 µM | 3 µM | 3.15 µM | – | – | – | – | – | – | – | – | – | –
Cn1c(=O)nc2n(-c3ccc(Cl)cc3)c(-c3ccccc3)c(-c3ccccc3)nc-2c1=O | > 100 µM | 32.5 µM | 60 µM | – | > 100 µM | > 100 µM | 66.7 µM | > 100 µM | – | – | – | – | – | – | – | – | – | –
CC(C)(C)c1cc(C(=O)Nc2ccc(C(=O)NCCN)cc2)cc(C(C)(C)C)c1 | 3.88 µM | 3.56 µM | 4.85 µM | 12.7 µM | 5.14 µM | 9.64 µM | 21.8 µM | 24.5 µM | 4.02 µM | 1.91 µM | 1.86 µM | 2.15 µM | 3.36 µM | 2.22 µM | 3.07 µM | 11 µM | 2.99 µM | 4.5 µM
Cc1cc(N(CCC#N)CCC#N)ccc1N=Nc1cc(Cl)ccc1Cl | 33.5 µM | 21.7 µM | 33.8 µM | – | 30 µM | 23.8 µM | 35.3 µM | 28.3 µM | – | – | – | – | – | – | – | – | – | –
CN(C)CCC(/C=C/c1ccccc1)=N\Nc1ccc(Cl)c(Cl)c1 | 13.6 µM | 7.25 µM | 6.31 µM | 11.2 µM | 4.41 µM | 6.18 µM | 13.3 µM | 5.9 µM | – | – | – | – | – | – | – | – | – | –
CCC/C=C\C=C\C1(NS(=O)(=O)c2ccc(C)cc2)CCC(C(C)(C)C)CC1 (stereo not drawn) | 25.9 µM | 88.7 µM | 29 µM | 38.3 µM | 31.9 µM | 69.9 µM | 56.7 µM | 72.1 µM | – | – | – | – | – | – | – | – | – | –
C/C(=N\NC(N)=S)c1ccc(C)c(C)c1 | > 100 µM | > 100 µM | > 100 µM | > 100 µM | > 100 µM | > 100 µM | > 100 µM | > 100 µM | – | – | – | – | – | – | – | – | – | –
Cc1cccc(C)c1NC(=O)CCc1nnc2s/c(=C\c3ccc(N(C)C)cc3)c(=O)n12 | > 100 µM | > 100 µM | > 100 µM | > 100 µM | > 100 µM | > 100 µM | > 100 µM | > 100 µM | – | – | – | – | – | – | – | – | – | –
O=C1/C(=C/c2ccc3c(c2)OCCO3)CCC/C1=C\c1ccc2c(c1)OCCO2 | 36.7 µM | 61.3 µM | – | 7.85 µM | 62.1 µM | > 100 µM | 92.1 µM | 66.9 µM | – | – | – | – | – | – | – | – | – | –
Nc1ncnc2c1ncn2C1OC(COS(N)(=O)=O)C(O)C1O (stereo not drawn) | – | – | – | 0.0156 µM and 0.0656 µM | – | – | – | 0.0083 µM and 0.0565 µM | 0.00255 µM and 0.0194 µM | – | – | – | 0.00252 µM and 0.0248 µM | – | 0.0243 µM | 0.0587 µM | – | –
O=c1c2cc(Br)cc(Br)c2nc(CCCl)n1-c1ccc(O)c([N+](=O)[O-])c1 | 32.9 µM | 47.3 µM | 34.6 µM | 28.1 µM | 33.7 µM | 32.7 µM | 33 µM | 39.2 µM | – | – | – | – | – | – | – | – | – | –
COc1ccc(C(C)c2cc(OC)c(OC)c(OC)c2)cc1 (stereo not drawn) | > 50 µM | > 50 µM | – | – | > 50 µM | > 50 µM | > 50 µM | – | – | 0.173 µM | 0.27 µM | – | – | 0.058 µM | 0.165 µM | > 50 µM | > 50 µM | 0.259 µM
CCc1cccc(C(C)C)c1NC(=O)CCl | > 100 µM | > 100 µM | > 100 µM | > 100 µM | > 100 µM | > 100 µM | – | > 100 µM | – | – | – | – | – | – | – | – | – | –
